PubChem BioAssay (NCI)
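Protocol summary: plate cells (96-well), add compound at 5 concentrations, incubate 48 h, interpolate endpoints linearly. GI50 is the concentration that inhibits growth by half. TGI: total growth inhibition.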

Legend:
Experiment in all cases: NCI-60 cell line screen, 48 h
A498 renal = system: A498 renal
ACHN renal = system: ACHN renal
CCRF-CEM leukemia = system: CCRF-CEM leukemia
HOP-92 NSCLC = system: HOP-92 NSCLC
MCF7 breast = system: MCF7 breast
NCI/ADR-RES ovarian = system: NCI/ADR-RES ovarian
OVCAR-4 ovarian = system: OVCAR-4 ovarian
SK-MEL-2 melanoma = system: SK-MEL-2 melanoma
SW-620 colon = system: SW-620 colon
UACC-257 melanoma = system: UACC-257 melanoma
K-562 leukemia = system: K-562 leukemia

How did the TGI (A498 renal) turn out when `COc1cc(/C=C/C(=N\NS(=O)(=O)c2ccc(C)cc2)c2sc(NNC(C)=O)nc2C)ccc1O` was run?
The TGI was over 100 µM.

What about the TGI (ACHN renal) of the same molecule?
The TGI was over 100 µM.

What about the TGI (CCRF-CEM leukemia) of the same molecule?
Its TGI is over 100 µM.

What about the TGI (HOP-92 NSCLC) of the same molecule?
The TGI was over 100 µM.

And the TGI (MCF7 breast)?
Its TGI is over 100 µM.

What about the TGI (NCI/ADR-RES ovarian) of the same molecule?
Its TGI is over 100 µM.

What about the TGI (OVCAR-4 ovarian) of the same molecule?
Its TGI is over 100 µM.

What about the TGI (SK-MEL-2 melanoma) of the same molecule?
The TGI was over 100 µM.

What about the TGI (SW-620 colon) of the same molecule?
The TGI was over 100 µM.

And the TGI (UACC-257 melanoma)?
Its TGI is over 100 µM.

How did the TGI (A498 renal) turn out when `COc1ccc(C(OCC2OC(n3cc(C)c(=O)[nH]c3=O)CC2n2cc(Cn3cc(I)c(=O)[nH]c3=O)nn2)(c2ccccc2)c2ccccc2)cc1` (stereo not given) was run?
Its TGI is over 100 µM.

What about the TGI (ACHN renal) of the same molecule?
The TGI was over 100 µM.

And the TGI (CCRF-CEM leukemia)?
The TGI was over 100 µM.

And the TGI (HOP-92 NSCLC)?
The TGI was over 100 µM.

What about the TGI (MCF7 breast) of the same molecule?
The TGI was over 100 µM.

And the TGI (NCI/ADR-RES ovarian)?
The TGI was over 100 µM.

And the TGI (OVCAR-4 ovarian)?
Its TGI is over 100 µM.

And the TGI (SK-MEL-2 melanoma)?
The TGI was over 100 µM.

And the TGI (SW-620 colon)?
Its TGI is over 100 µM.

And the TGI (UACC-257 melanoma)?
Its TGI is over 100 µM.

Which results are given for `CC1(C)N=C(/C(Cl)=[N+](/[O-])C(=O)c2ccc(F)cc2)C(C)(C)N1O`?
TGI (ACHN renal): 36.5 µM; TGI (CCRF-CEM leukemia): 12.8 µM; TGI (HOP-92 NSCLC): 40 µM; TGI (K-562 leukemia): 17.3 µM; TGI (MCF7 breast): 44 µM; TGI (NCI/ADR-RES ovarian): > 100 µM; TGI (OVCAR-4 ovarian): 32.2 µM; TGI (SK-MEL-2 melanoma): 40.3 µM; TGI (SW-620 colon): 39.2 µM; TGI (UACC-257 melanoma): 32.3 µM

`c1ccc(N=C2SC3=Nc4cccc5cccc(c45)N3C2=Nc2ccccc2)cc1` was tested. Which TGI (A498 renal) did it give?
The TGI was over 100 µM.

What about the TGI (CCRF-CEM leukemia) of the same molecule?
The TGI was over 100 µM.

And the TGI (HOP-92 NSCLC)?
Its TGI is over 100 µM.

And the TGI (K-562 leukemia)?
Its TGI is over 100 µM.

And the TGI (MCF7 breast)?
The TGI was over 100 µM.

What about the TGI (NCI/ADR-RES ovarian) of the same molecule?
Its TGI is over 100 µM.

And the TGI (SK-MEL-2 melanoma)?
The TGI was over 100 µM.

How did the TGI (A498 renal) turn out when `Oc1cc2c3c(c1)c1cc4c(cc1c[n+]3CC2)OCO4` was run?
Its TGI is over 74.7 µM.

What about the TGI (ACHN renal) of the same molecule?
The TGI was over 100 µM.

And the TGI (CCRF-CEM leukemia)?
Its TGI is over 45.8 µM.

What about the TGI (HOP-92 NSCLC) of the same molecule?
Its TGI is over 75.6 µM.

And the TGI (K-562 leukemia)?
Its TGI is over 100 µM.

What about the TGI (MCF7 breast) of the same molecule?
The TGI was over 100 µM.

What about the TGI (OVCAR-4 ovarian) of the same molecule?
The TGI was over 48.6 µM.

What about the TGI (SK-MEL-2 melanoma) of the same molecule?
Its TGI is over 84.5 µM.

What about the TGI (SW-620 colon) of the same molecule?
Its TGI is over 36.6 µM.

And the TGI (UACC-257 melanoma)?
The TGI was over 57.4 µM.

With `CCC12C=CCN3CCC4(C(=C(C(=O)OC)[C@@H]1O)Nc1ccccc14)C32` (stereo not given in full) as the molecule, how does the TGI (A498 renal) read?
Its TGI is 5.28 µM.

And the TGI (ACHN renal)?
Its TGI is 3.3 µM.

What about the TGI (CCRF-CEM leukemia) of the same molecule?
The TGI was 6 µM.

And the TGI (HOP-92 NSCLC)?
Its TGI is 4.16 µM.

And the TGI (K-562 leukemia)?
Its TGI is over 26.9 µM.

What about the TGI (OVCAR-4 ovarian) of the same molecule?
Its TGI is 4.17 µM.

And the TGI (SK-MEL-2 melanoma)?
The TGI was 3.84 µM.

And the TGI (SW-620 colon)?
Its TGI is 3.3 µM.

And the TGI (UACC-257 melanoma)?
Its TGI is 3.42 µM.

Which TGI (A498 renal) does the source give for `O=C1CCC23CC(C=CC=C12)n1c(=O)n(-c2ccccc2)c(=O)n13` (stereo not given) here?
Its TGI is over 100 µM.

And the TGI (CCRF-CEM leukemia)?
Its TGI is over 100 µM.

What about the TGI (HOP-92 NSCLC) of the same molecule?
The TGI was over 100 µM.

And the TGI (K-562 leukemia)?
Its TGI is over 100 µM.

And the TGI (MCF7 breast)?
Its TGI is 32.3 µM.

What about the TGI (NCI/ADR-RES ovarian) of the same molecule?
Its TGI is over 81.2 µM.

What about the TGI (OVCAR-4 ovarian) of the same molecule?
Its TGI is over 100 µM.

What about the TGI (SK-MEL-2 melanoma) of the same molecule?
The TGI was over 100 µM.

What about the TGI (SW-620 colon) of the same molecule?
Its TGI is over 100 µM.

What about the TGI (UACC-257 melanoma) of the same molecule?
The TGI was over 100 µM.

What does the source list for `CC1=C(C)[C@@]2(C)O[C@@]2(C)O[C@@]2(C)O[C@@]12C`?
TGI (A498 renal): > 100 µM; TGI (ACHN renal): > 100 µM; TGI (HOP-92 NSCLC): > 100 µM; TGI (K-562 leukemia): > 100 µM; TGI (MCF7 breast): > 100 µM; TGI (NCI/ADR-RES ovarian): > 100 µM; TGI (OVCAR-4 ovarian): > 100 µM; TGI (SK-MEL-2 melanoma): > 100 µM; TGI (UACC-257 melanoma): > 100 µM

With `CCCNC1=C2CC(C)CC(OC)[C@@H](O)[C@H](C)/C=C(\C)C(OC(N)=O)C(OC)/C=C\C=C(/C)C(=O)NC(=CC1=O)C2=O` (stereo not given in full) as the molecule, how does the TGI (A498 renal) read?
The TGI was 9.55 µM.

What about the TGI (ACHN renal) of the same molecule?
The TGI was 91.4 µM.

And the GI50 (CCRF-CEM leukemia)?
Its GI50 is 309 nM.

And the TGI (CCRF-CEM leukemia)?
The TGI was 3.13 µM.

What about the GI50 (HOP-92 NSCLC) of the same molecule?
The GI50 was 16.8 µM.

What about the TGI (K-562 leukemia) of the same molecule?
Its TGI is over 100 µM.

And the GI50 (MCF7 breast)?
The GI50 was 52.5 nM.

And the TGI (MCF7 breast)?
The TGI was 28.5 µM.

What about the TGI (OVCAR-4 ovarian) of the same molecule?
The TGI was over 100 µM.

And the GI50 (SK-MEL-2 melanoma)?
The GI50 was 13.1 µM.

What about the TGI (SK-MEL-2 melanoma) of the same molecule?
Its TGI is 31.4 µM.

What about the GI50 (SW-620 colon) of the same molecule?
The GI50 was 60.6 nM.

And the TGI (SW-620 colon)?
The TGI was over 100 µM.

What about the GI50 (UACC-257 melanoma) of the same molecule?
The GI50 was 318 nM.

And the TGI (UACC-257 melanoma)?
The TGI was 36.4 µM.

Which results are given for `O=C(Nc1ccc(C2=NCCN2)cc1)c1cncc(C(=O)Nc2ccc(C3=NCCN3)cc2)c1`?
TGI (A498 renal): > 100 µM; TGI (CCRF-CEM leukemia): > 100 µM; TGI (HOP-92 NSCLC): > 100 µM; TGI (K-562 leukemia): > 100 µM; TGI (MCF7 breast): > 100 µM; TGI (NCI/ADR-RES ovarian): > 100 µM; TGI (OVCAR-4 ovarian): > 100 µM; TGI (SK-MEL-2 melanoma): > 100 µM; TGI (SW-620 colon): > 100 µM; TGI (UACC-257 melanoma): > 100 µM
